The source of these data is paper PMC4053365 (PLoS ONE, 2014).

One series has as its system rodents. To be noted: fraction or fold of morphine potency; cited from earlier work.
In series [1] the test system is mice. The experiment in a line: Hot-plate test (acute thermal nociception). To be noted: s.c.; for ED50: Mus musculus, sc, 0.5 h, 30 min after administration, read-out: ED50 (95% CL) Hot-plate test. Type of series: in vivo. On the technique in general: Hot-plate and tail-flick tests time the reaction to a heat stimulus.
For series [2], the system named is mice. The series can be described thus: Tail-flick test (acute thermal nociception). Particulars: s.c.; for ED50: Mus musculus, sc, 0.5 h, 30 min after administration, read-out: ED50 (95% CL) Tail-flick test. Type of series: in vivo.
Another series concerns the target T1, MOP receptor (Rattus norvegicus, UniProt P33535).
T1 construct: Membranes were prepared from Sprague-Dawley rat or guinea pig brains; from tissue; host or cells: Sprague-Dawley rat brain membranes
The series can be described thus: Radioligand binding assay, [3H]DAMGO, rat brain membranes. Particulars: for Selectivity ratio DOP/MOP / Selectivity ratio KOP/MOP: ratio of Ki values.

For series [3], the system named is mice. The experiment in a line: Observation of locomotor activity and sedation during antinociception testing. In kind it is in vivo. Particulars: s.c., any tested dose, about 3- to 4-fold the analgesic ED50 dose.
In the next series the target is T2, KOP receptor (Cavia porcellus, UniProt P41144).
T2 construct: Membranes were prepared from Sprague-Dawley rat or guinea pig brains; from tissue; host or cells: guinea pig brain membranes
T2 sequence (P41144 whole entry): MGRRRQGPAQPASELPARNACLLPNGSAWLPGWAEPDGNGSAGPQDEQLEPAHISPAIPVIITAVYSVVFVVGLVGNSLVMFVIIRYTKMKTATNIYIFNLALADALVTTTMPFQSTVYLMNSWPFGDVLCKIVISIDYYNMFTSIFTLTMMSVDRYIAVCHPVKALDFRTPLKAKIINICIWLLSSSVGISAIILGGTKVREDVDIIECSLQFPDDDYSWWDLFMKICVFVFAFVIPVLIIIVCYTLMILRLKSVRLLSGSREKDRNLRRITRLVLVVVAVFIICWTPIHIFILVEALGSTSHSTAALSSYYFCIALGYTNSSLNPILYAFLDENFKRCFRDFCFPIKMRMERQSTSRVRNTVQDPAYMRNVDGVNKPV
The experiment in a line: Radioligand binding assay, [3H]U69,593, guinea pig brain membranes.

Series [4] deals with T3, human KOP receptor (Homo sapiens, UniProt P41145). Type of series: cell-based. Also noted: expressed in transfected cells; host or cells: CHO (CHOhKOP) stably expressing Gαqi5, whole cells.
T3 sequence (P41145 whole entry): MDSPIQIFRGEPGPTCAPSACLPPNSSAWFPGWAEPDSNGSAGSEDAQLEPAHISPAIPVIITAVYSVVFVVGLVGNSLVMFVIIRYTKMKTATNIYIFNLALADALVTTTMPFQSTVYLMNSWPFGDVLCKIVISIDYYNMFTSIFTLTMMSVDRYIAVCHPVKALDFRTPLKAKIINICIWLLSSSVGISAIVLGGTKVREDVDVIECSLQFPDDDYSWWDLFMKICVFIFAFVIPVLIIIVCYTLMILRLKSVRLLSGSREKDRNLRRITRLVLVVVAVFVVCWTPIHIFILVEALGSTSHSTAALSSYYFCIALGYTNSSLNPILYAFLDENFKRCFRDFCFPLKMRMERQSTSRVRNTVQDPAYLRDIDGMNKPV
Series [5] concerns the target T4, human DOP receptor (Homo sapiens, UniProt P41143). Type of series: cell-based. Also noted: expressed in transfected cells; host or cells: CHO (CHOhDOP) stably expressing GαqG66Di5, whole cells. Particulars: CHO cells co-expressing human DOP and GαqG66Di5; inactive = inactive up to 10 µM; crc = concentration response curve.
The next series deals with T5, DOP receptor (Rattus norvegicus, UniProt P33533).
T5 construct: Membranes were prepared from Sprague-Dawley rat or guinea pig brains; from tissue; host or cells: Sprague-Dawley rat brain membranes
T5 sequence (P33533 whole entry): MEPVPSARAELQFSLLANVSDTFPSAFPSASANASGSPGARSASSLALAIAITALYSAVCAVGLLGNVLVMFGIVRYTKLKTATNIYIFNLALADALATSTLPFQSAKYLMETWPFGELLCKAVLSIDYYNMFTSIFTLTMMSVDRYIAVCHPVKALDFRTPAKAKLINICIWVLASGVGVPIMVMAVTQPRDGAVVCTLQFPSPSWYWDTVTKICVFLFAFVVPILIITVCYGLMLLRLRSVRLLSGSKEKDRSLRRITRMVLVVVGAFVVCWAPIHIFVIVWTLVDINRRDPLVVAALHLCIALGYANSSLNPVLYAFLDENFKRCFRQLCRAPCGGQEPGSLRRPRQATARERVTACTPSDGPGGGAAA
The series can be described thus: Radioligand binding assay, [3H][Ile5,6]deltorphin II, rat brain membranes.

A further series addresses DOP. On the set-up: method as in earlier work. To be noted: read-out: Ki DOP (previously reported); cited from earlier work.
Another series concerns the target KOP. On the set-up: method as in earlier work. To be noted: read-out: Ki KOP (previously reported); cited from earlier work.
For the next series, the target named is MOP. On the set-up: method as in earlier work. To be noted: read-out: Ki MOP (previously reported); cited from earlier work.
For series [6], the target named is T6, human MOP receptor (Homo sapiens, UniProt P35372). The experiment in a line: biochemical. In kind it is biochemical. On the set-up: expressed in transfected cells; host or cells: CHO (CHOhMOP) cell membranes.
T6 sequence (P35372 whole entry): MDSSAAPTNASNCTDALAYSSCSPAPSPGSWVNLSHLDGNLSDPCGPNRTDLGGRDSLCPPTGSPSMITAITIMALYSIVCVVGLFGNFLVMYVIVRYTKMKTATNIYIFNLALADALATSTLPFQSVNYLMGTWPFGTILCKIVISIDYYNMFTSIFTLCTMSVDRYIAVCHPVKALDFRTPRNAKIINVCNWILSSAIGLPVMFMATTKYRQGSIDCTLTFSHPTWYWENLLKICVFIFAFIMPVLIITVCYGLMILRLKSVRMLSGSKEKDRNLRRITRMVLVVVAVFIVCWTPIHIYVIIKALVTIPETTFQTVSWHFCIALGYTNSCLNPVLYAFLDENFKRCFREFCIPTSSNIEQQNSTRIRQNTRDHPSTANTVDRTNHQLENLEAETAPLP
Series [7] deals with T6, human MOP receptor. The series can be described thus: cell-based. Type of series: cell-based. Also noted: expressed in transfected cells; host or cells: CHO (CHOhMOP) stably expressing Gαqi5, whole cells.
For series [8], the target named is T4, human DOP receptor. The experiment in a line: biochemical. On the set-up: expressed in transfected cells; host or cells: CHO (CHOhDOP) cell membranes.
For series [9], the target named is T3, human KOP receptor. The experiment in a line: biochemical. On the set-up: expressed in transfected cells; host or cells: CHO (CHOhKOP) cell membranes.

Structures can show the parent of a compound that is named as a salt.

T4 sequence (P41143 whole entry): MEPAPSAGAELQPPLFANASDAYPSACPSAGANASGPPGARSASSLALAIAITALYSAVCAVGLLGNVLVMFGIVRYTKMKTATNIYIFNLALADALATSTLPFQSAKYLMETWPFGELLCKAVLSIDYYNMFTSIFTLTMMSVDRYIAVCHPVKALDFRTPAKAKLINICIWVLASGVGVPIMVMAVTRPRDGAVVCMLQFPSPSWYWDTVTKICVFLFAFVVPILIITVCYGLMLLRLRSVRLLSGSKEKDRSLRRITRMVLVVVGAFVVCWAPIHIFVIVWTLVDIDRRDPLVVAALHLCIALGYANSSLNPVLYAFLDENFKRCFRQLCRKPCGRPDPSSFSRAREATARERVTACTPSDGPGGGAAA
T1 sequence (P33535 whole entry): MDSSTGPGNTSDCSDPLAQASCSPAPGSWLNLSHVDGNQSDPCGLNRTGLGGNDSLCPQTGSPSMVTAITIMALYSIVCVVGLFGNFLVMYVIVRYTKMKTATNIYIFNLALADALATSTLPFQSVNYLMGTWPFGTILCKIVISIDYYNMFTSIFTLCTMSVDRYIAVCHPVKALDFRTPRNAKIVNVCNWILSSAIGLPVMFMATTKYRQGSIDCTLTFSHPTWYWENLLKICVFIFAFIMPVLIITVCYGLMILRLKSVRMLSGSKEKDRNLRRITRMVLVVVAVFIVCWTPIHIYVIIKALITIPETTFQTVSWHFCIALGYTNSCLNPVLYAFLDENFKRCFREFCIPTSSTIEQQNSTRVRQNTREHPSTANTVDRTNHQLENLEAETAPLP

`Oc1ccc2c3c1OC1C(O)C=CC4C(C2)N(Cc2ccccc2)CCC341` (centres unmarked) [N-benzylnormorphine]: the “Analgesic potency relative to morphine” value with rodents is listed as “less than one-tenth”.
As a reminder, the ED50 is the dose that gives a 50% effect, or the effect in half of the subjects. Regarding `CN1CC[C@]23c4c5ccc(O)c4O[C@H]2C(=O)CC[C@@]3(O)[C@H]1C5` [Oxymorphone, reference compound], the results for the ED50 in the series on mice [1] and with mice [2] were 0.38 mg/kg and 0.35 mg/kg, respectively.
In the case of N-cyclohexylethylnormorphine, the “Analgesic potency relative to morphine” value in the series with rodents is “one-third”.
The Ki is a dissociation constant, usually derived from enzyme kinetics or from competition with a known ligand. As for `Oc1ccc2c3c1O[C@H]1[C@@H](O)C=C[C@@]4(O)[C@@H](C2)N(CCc2ccccc2)CC[C@]314` [Compound 4, N-Phenethyl-14-hydroxynormorphine], the Ki on MOP receptor was found to be 4.6 ± 0.01 nM; at KOP receptor it was 513 ± 66 nM; on DOP receptor it was 163 ± 17 nM. Besides, the “MOP receptor affinity lower than 14-unsubstituted counterpart 1” value at MOP receptor (vs compound 1) was “about 5 fold”. The “MOP receptor binding affinity increase over 14-hydroxymorphine (3)” value at MOP receptor (vs compound 3) is on record as “about 4 fold”. In the series with mice [3], the “Locomotor activity and sedative effects” value was “no major alterations in locomotor activity and no sedative effects”. Besides, the “Calcium mobilization assay KOP EC50” value on human KOP receptor [4] was “inactive ^d”. Further, the “Calcium mobilization assay KOP Emax” value at human KOP receptor [4] was “inactive ^d”. Moreover, the “Calcium mobilization assay DOP EC50” value on human DOP receptor [5] was “inactive ^d”. For the same molecule, the ED50 in the series with mice [2] came to 1.14 mg/kg.
What is called melting point is the temperature of the solid-liquid transition. For the molecule `O=C1CC[C@@]2(O)[C@H]3Cc4ccc(O)c5c4[C@@]2(CCN3CCc2ccccc2)[C@H]1O5` (as salt: HCl) [Compound 6, N-phenethylnoroxymorphone], the melting point was in the range of 85 to 90 °C.
The molecule `O=C1CC[C@@]2(O)[C@H]3Cc4ccc(O)c5c4[C@@]2(CCN3Cc2ccccc2)[C@H]1O5` [Compound 5, N-Benzylnoroxymorphone] showed a melting point of 235 to 237 °C. For the same molecule, the Ki on DOP was […]. At KOP, the Ki is […]. Also, the Ki at MOP is […].
For the molecule `O=C1CC[C@@]2(O)[C@H]3Cc4ccc(O)c5c4[C@@]2(CCN3CCc2ccccc2)[C@H]1O5` [Compound 6, N-phenethylnoroxymorphone], the “Locomotor activity and sedative effects” value with mice [3] is “no major alterations in locomotor activity and no sedative effects”. In addition, the ED50 with mice [1] was found to be 0.18 mg/kg; in the series with mice [2], 0.15 mg/kg. In addition, the “Antinociceptive potency higher than 6-hydroxy counterpart 4” value with mice [1] (hot-plate and tail-flick tests, vs compound 4) is on record as “up to 8 fold”. In addition, the “Antinociceptive potency higher than oxymorphone” value in the series on mice [1] (hot-plate and tail-flick tests, vs oxymorphone) is listed as “about 2 fold”.
For `Oc1ccc2c3c1O[C@H]1[C@@H](O)C=C[C@H]4[C@@H](C2)N(CCCc2ccccc2)CC[C@@]341` [Compound 2, N-phenylpropylnormorphine], the results for the Ki on MOP receptor, at KOP receptor and at DOP receptor were 79.5 ± 1.1 nM, 565 ± 24 nM and 869 ± 171 nM, respectively. For the same molecule, the “Selectivity ratio DOP/MOP” value at MOP receptor is recorded as 11. The “Selectivity ratio KOP/MOP” value on MOP receptor was determined as 7.
Usually EC50 stands for the concentration at which the effect is half-maximal. High values mean a less potent agent, low ones a more potent agent. Broadly, the Emax is the size of the effect at its maximum, as opposed to the concentration needed. Consider `Oc1ccc2c3c1O[C@H]1[C@@H](O)C=C[C@H]4[C@@H](C2)N(CCc2ccccc2)CC[C@@]341` [Compound 1, N-phenethylnormorphine], for which the melting point is 255 to 257 °C. Further, on MOP receptor, the Ki came to 0.93 ± 0.14 nM, the “Selectivity ratio DOP/MOP” value came to 40 and the “Selectivity ratio KOP/MOP” value is recorded as 115. For the same molecule, on MOP receptor (vs morphine), the “MOP receptor affinity greater than morphine” value came to 7 fold. Further, at human MOP receptor [6], a half-maximal response (EC50) required 10.3 ± 0.9 nM, the “MOP agonist potency in [35S]GTPγS more potent than DAMGO” value turned out to be 2 fold and the “MOP agonist potency in [35S]GTPγS more potent than morphine” value is recorded as “about 3 fold”. Also, at human MOP receptor [6] (read-out: [35S]GTPγS functional assay MOP Emax), the Emax worked out at 113 ± 8%. Further, the “Locomotor activity and sedative effects” value with mice [3] was “no major alterations in locomotor activity and no sedative effects”. Also, on human MOP receptor [7], the “Calcium mobilization MOP more active than 14-hydroxy analogue 4” value is recorded as “about 3 fold”, the “Calcium mobilization MOP more potent than morphine” value is on record as “about 3 fold” and it took 48.8 ± 14 nM to reach a half-maximal effect (EC50). Also, the Emax at human MOP receptor [7] (read-out: Calcium mobilization assay MOP Emax) is 70 ± 4%. Moreover, the ED50 with mice [1] was found to be 0.11 mg/kg. Besides, in the series on mice [1] (vs morphine), the “Hot-plate test, more effective than morphine” value stood at 22 fold. Further, at human DOP receptor [8], the EC50 was determined as 712 ± 86 nM. The Emax at human DOP receptor [8] (read-out: [35S]GTPγS functional assay DOP Emax) is 138 ± 17%. Further, on KOP receptor, affinity was put at a Ki of 107 ± 18 nM. At human KOP receptor [9], this molecule yielded an EC50 of 1050 nM. Further, the Emax at human KOP receptor [9] (read-out: [35S]GTPγS functional assay KOP Emax) amounted to 19 ± 2%. For the same molecule, at human KOP receptor [4], the “Calcium mobilization assay KOP EC50” value is “inactive ^d” and the “Calcium mobilization assay KOP Emax” value is “inactive ^d”. In addition, the “Calcium mobilization assay DOP EC50” value on human DOP receptor [5] is reported as “crc incomplete ^e”. Also, the ED50 in the series on mice [2] stood at 0.11 mg/kg. In addition, the “Tail-flick test, more effective than morphine” value in the series with mice [2] (vs morphine) was 28 fold. The same molecule yielded a Ki on DOP receptor of 37 ± 5.5 nM.
